Columns and labels:
MCF-10A cells = assay: Inhibitory effects on the proliferation of MCF-10A cells (CCK8); type: cell-based; settings: Homo sapiens, 144 h, 6 days
Summary of the method: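 MCF-10A cells seeded at 500 cells/well, cultured 24 h, then exposed to 9-point 3-fold dilutions from 10 μM final for 6 days at 37° C., 5% CO2. Viability by CCK8, 2–3 h, OD450 read; IC50 reported.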

T47D cells = assay: Inhibitory effects on the proliferation of T47D cells (CellTiter-Glo); type: cell-based; settings: Homo sapiens, 168 h, 7 days
Summary of the method: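 T47D cells (1000/well, RPMI 1640 + 10% FBS) cultured 24 h, then exposed 7 days at 37 °C to 9 compound concentrations, 3-fold dilutions from 10 μM final. Viability by CellTiter-Glo luminescence; IC50 derived.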

MDA-MB-453 cells = assay: Pharmacodynamic evaluation in NOD SCID mouse model with subcutaneous xenograft tumor of MDA-MB-453 cells; type: in vivo; settings: oral, twice a day
Experimental: Experimental Example 6: Pharmacodynamic Evaluation of the Compound According to the Present Invention in NOD SCID Mouse Model with Subcutaneous Xenograft Tumor of MDA-MB-453 Cells
MDA-MB-453 cell lines were cultured in Leibovitz's L-15 medium+10% fetal bovine serum+1% […] at 37° C. under 5% CO2, and passaged once a week. When the cell saturation was between 80% and 90%, and the required quantity was reached, the cells were collected, counted, and inoculated.
When the number of cells in the logarithmic growth phase reached the required amount for the experiment, the cells were collected, and centrifuged at 1000 rpm for 5 minutes to remove the supernatant. The cells were resuspended in the medium, and counted using a cell counter. Based on the counting results, the original solution was diluted to obtain cell suspension at a concentration of 1*10^8 cells/mL. The cell viability was 94.55%, P14 generation. The diluted cell suspension and matrix gel were diluted in a 1:1 ratio, and after mixing, placed on ice. a 1 mL sterile syringe was used to transfer the suspension. 0.2 mL of cell suspension was subcutaneously inoculated into the right axilla of each mouse. Each mouse was inoculated with 1*10^7 MDA-MB-453 cells.
After inoculation, the tumor growth state was observed daily. When the average volume reached about 157.14 mm^3, mice were randomly divided into groups based on tumor size and body weight for administration. The same dose of solvent was given to the control group. The day on which tumor cells were inoculated was defined as Day 0.
The health and mortality status of animals was daily monitored, including tumor growth, activity ability, diet, weight, eyes, hair, and other abnormal behaviors. Body weight was measured daily, while tumor volume was measured twice a week. The tumor volume was measured using a vernier caliper, and the formula is TV=0.5 a×b^2, wherein a is the long diameter of the tumor, and b is the short diameter of the tumor. After reaching the experimental endpoint, plasma samples were collected from each group at pre-determined time points for determining the plasma concentration. After euthanizing mice, tumors were collected, photographed, weighed, and frozen.
Relative tumor proliferation rate, T/C (%), refers to the percentage ratio of tumor volume or weight between the treatment group and the control group at a certain time point. The calculation formula is: T/C %=TRTV/CRTV×100%
wherein, TRTV: the average relative tumor volume (RTV) of the treatment group; CRTV: the average relative tumor volume of the control group; (RTV): RTV=Vt/V0, V0 is the tumor volume of the animal at the time of grouping, and Vt is the tumor volume of the animal after treatment. […]

IC50 (T47D cells) [nM] | Compound | IC50 (MCF-10A cells) [nM] | TGI % after administrating for 21 days (MDA-MB-453 cells; 25 mg/kg) [%] | TGI % after administrating for 21 days (MDA-MB-453 cells; 75 mg/kg) [%]
< 1000 | Cc1cc([C@@H](C)Nc2ccc(Cl)nc2C(=O)O)c2nc(-c3ccc(F)cn3)n(C)c(=O)c2c1 [Compound 66, (R)-6-chloro-3-((1-(2-(5-fluoropyridin-2-yl)-3,6-dimethyl-4-oxo-3,4-dihydroquinazolin-8-yl)ethyl)amino)pyridinecarboxylic Acid] | > 5000 | 71 | 87
< 1000 | C[C@@H](Nc1ccc(Cl)nc1C(=O)O)c1cc(F)cc2c(=O)n(C)c(-c3ccc(F)cn3)nc12 [Compound 74] | > 5000 | 74 | 85

— patent US20260015341A1, “PI3K INHIBITOR, PREPARATION METHOD THEREFOR, AND USE THEREOF” (HINOVA PHARMACEUTICALS INC., priority 2022, published 2026)
